# How the values were obtained:
# [1] = Foamability (foam volume) after one minute of foam generation with an Ultra Turrax system at 8200 rpm; type: physicochemical
# Description: The "foamability", i.e. the volume of foam produced, and the foam stability were tested for a number of combinations of foaming agent and co-surfactant. Specifically, a number of foaming solutions were prepared containing various amounts of foaming agent and co-surfactant. The following foaming agents were tested: FA1 mixture of linear sodium octyl sulfate, sodium decyl sulfate, and sodium dodecyl sulfate as described in EP1328485. FA2 sodium n-decyl sulfate (Empicol® 0758, available from Huntsman) FA3 alkyl ether sulfate (Millifoam® H, available from Huntsman) FA4 STEOL ® DES32-IS (alkyl ether sulfate based surfactant, available from Stepan)
# Each of the foaming agents was mixed with 5 wt%, 10 wt%, and 20 wt% (relative to the weight of foaming agent) of the following co-surfactants: CS1 lauramine oxide (dodecyldimethylamine oxide), available under the trade name Empigen® OB (Huntsman Performance Products) CS2 C8-10alkyl polyglucoside available under the trade name Glucopon 215® (comparative example)
# (§1) For each mixture, foamability (foam volume) and foam stability were measured after one minute of foam generation with an Ultra Turrax system at 8200 rpm.
# [2] = Foam stability (foam half-life: time to recover one half of the original liquid volume from the foam); type: physicochemical
# Description: as §1
# Also the foam stability was tested, by measuring the foam half-life, i.e. the amount of time it takes to recover one half of the original volume of liquid from a measured volume of foam.
# [3] = co-surfactant mixed at 5, 10, 20 wt% with foaming agents
smiles,measurement,setting,value
"CCCCCCCCCCCC[N+](C)(C)[O-] [CS1, dodecyldimethylamine oxide]",effect of co-surfactant on foamability (foam volume) of the foaming agents,[1]; [3],significantly increase
same,effect of co-surfactant on foam stability,[2]; [3],highest foam stability improvement
"CCCCCCCCCCOS(=O)(=O)[O-].[Na+] [FA2, sodium n-decyl sulfate]",Foam volume increase (%),[1]; 0 % CS1 (baseline),0%
same,Foam volume,[1]; 0 % CS1 (wt% relative to total foaming agent and co-surfactant),530 mL
same,Foam volume,[1]; 5 % CS1,562 mL
same,Foam volume increase (%),"[1]; 5 % CS1, versus 0 % CS1",6%
same,Foam volume,[1]; 10 % CS1,599 mL
same,Foam volume increase (%),"[1]; 10 % CS1, versus 0 % CS1",13%
same,Foam volume,[1]; 20 % CS1,588 mL
same,Foam volume increase (%),"[1]; 20 % CS1, versus 0 % CS1",11%
same,Half-life,[2]; 0 % CS1,5.78 min
same,Half-life increase (%),[2]; 0 % CS1 (baseline),0%
same,Half-life,[2]; 5 % CS1,6.18 min
same,Half-life increase (%),"[2]; 5 % CS1, versus 0 % CS1",7%
same,Half-life,[2]; 10 % CS1,6.87 min
same,Half-life increase (%),"[2]; 10 % CS1, versus 0 % CS1",11%
same,Half-life,[2]; 20 % CS1,8.4 min
same,Half-life increase (%),"[2]; 20 % CS1, versus 0 % CS1",36%
